Results published in patent US4966916A (priority 1989, dated 1990).
“Also recorded” adds a separate entry of the source. Read-outs that look alike come from different tables or passages of the source.

Columns and labels:
rats or mice = conditions: in vivo; cited from earlier work
[1] = molecular target: nicotine receptor, rat brain membranes; format: binding
[2] = molecular target: nicotine receptor, rat brain membranes; format: binding; remark: listed apart in the source
rats = test system: rats; parameters: species or system Sprague-Dawley male rats; conditions: rat, in vivo
[3] = test system: nicotine-induced prostration in rats; parameters: species or system Sprague-Dawley male rats; conditions: rat, in vivo
[4] = test system: nicotine receptor, rat brain membranes; format: binding; conditions: for IC50: read-out: [3H]-nicotine IC50
[5] = test system: nicotine receptor, rat brain membranes; format: binding; conditions: for IC50: read-out: [3H]-MCC IC50
[6] = test system: nicotine-induced seizures in rats; conditions: rat, in vivo
[7] = test system: nicotine mortality in rats; conditions: rat, in vivo
[8] = test system: hypertensive action of nicotine in anesthetized rats; conditions: rat, in vivo, iv
[9] = test system: hypertensive action of nicotine in anesthetized rats; assay: animal or person; conditions: Rattus norvegicus, iv
[10] = test system: [3H]-nicotine binding sites in rat brain membranes
[11] = test system: nicotinic cholinergic and nicotine-like binding sites in rat brain membranes
[12] = read-out: 3H-Nicotine Binding IC50

C[N+]1(C)CCCC1c1cccnc1 (stereo not shown) [N'-methyl nicotonium]
seizures and mortality relative to nicotine (rats or mice): more potent than nicotine in producing seizures and mortality

C[N+](C)(C)CCOC(=O)CCC(=O)OCC[N+](C)(C)C [TMAE succinate, succinylcholine]
IC50 [1, 12]: 0.8 µM | IC50 ([1]; read-out: IC50 for 3H-nicotine): ~50 µM | IC50 ([2]; read-out: 3H-MCC Binding IC50): 0.7 µM | IC50 ([2]; read-out: IC50 for 3H-MCC): ~50 µM

CNC(=O)OC1CCN(Cc2ccccc2)CC1 [N-benzyl-4-piperdyl methylcarbamate]
IC50 [1, 12]: > 100 µM | IC50 ([2]; read-out: 3H-MCC Binding IC50): > 100 µM

CN(C)c1cccnc1 [3-dimethylaminopyridine]
action on prostration (rats): agonists

CN(C)CCOC(=O)c1cccnc1 [DMAE nicotinate]
antagonism of nicotine-induced prostration / nicotine actions [3]: next in effectiveness; also recorded: antagonistic to the nicotine-induced prostration

CCN(CC)CC(=O)Nc1c(C)cccc1C [lidocaine]
antagonist activity [3]: inactive

C[N+](C)(C)CCOC(=O)Cc1ccccc1 [TMAE phenylacetate]
antagonism of nicotine-induced prostration / nicotine actions [3]: next in effectiveness

CCCN1CCCC1c1cccnc1 (stereo not shown) [N'-propyl nornicotine]
decrease in affinity versus nicotine [4]: 200 fold | decrease in affinity versus nicotine [5]: 200 fold

DMAE naphthoate [DMAE napththoate]
IC50 [1, 12]: 80 µM | IC50 ([2]; read-out: 3H-MCC Binding IC50): 70 µM

N-benzylpiperidyl methylcarbamate
IC50 [1, 12]: > 100 µM | IC50 ([2]; read-out: 3H-MCC Binding IC50): > 100 µM

CN1CCCC1c1cccnc1 (single isomer, unassigned; (-)) [(-)-nicotine]
action on prostration (rats): agonists | behavioral / respiratory effects (rats): deep diaphragmatic breathing and a decreased respiratory rate | symptoms [6]: prostration followed by tremors, fasciculations, cyanosis and labored breathing, and myoclonic seizures | Seizures (rats with seizures/total) ([6]; 1.5 mg/kg): 10/10 | Mortality (dead/total) ([7]; ip, 3 mg/kg): 8/10 | increase in systolic blood pressure [8]: 25%

C[N+](C)(C)CCOC(=O)C1CCCCC1 [TMAE cyclohexylcarboxylate, choline ester of cyclohexylcarboxylic acid]
% Antagonism of seizures [6]: 78% | Seizures (rats with seizures/total) [6]: 1/8 | protection against nicotine mortality [7]: 66% | ED100 ([9]; read-out: Antagonistic dose (±s.d.) to completely block elevation in systolic blood pressure): 5 ± 1.5 mg/kg | ED100 ([9]; read-out: dose completely reversing increase in systolic blood pressure): 1.5 mg/kg

CN1[C@@H](CC(=O)c2ccccc2)CCC[C@H]1C[C@H](O)c1ccccc1 [α-lobeline]
binding affinity [1]: even greater affinity than (-)-nicotine; also recorded: very high affinity for brain nicotine receptors | antagonist activity [3]: most effective antagonist in blocking the prostration, seizures, and mortality | dose blocking nicotine-induced prostration [3]: 10 nmol | % Antagonism of seizures [6]: 0/8 | Seizures (rats with seizures/total) [6]: 1/8 | protection against seizures [6]: complete protection against seizures | % Antagonism of mortality [7]: 75% | Mortality (dead/total) [7]: 2/10 | reduction of the mortality [7]: 75%

C[N+](C)(C)CCOC(=S)Nc1ccccc1 [TMAE phenylthiocarbamate]
antagonism of nicotine-induced prostration / nicotine actions [3]: next in effectiveness | % Antagonism of mortality [7]: 63% | Mortality (dead/total) [7]: 3/10 | protection against nicotine mortality [7]: 63%

CN1CCCC1c1cccnc1 (single isomer, unassigned; (-)) [[^3 H]-nicotine, (-)-[^3 H]-nicotine]
Bmax, higher affinity site [10]: 5e-15 mol/mg

COC(=O)[C@H]1[C@@H](OC(=O)c2ccccc2)C[C@@H]2CC[C@H]1N2C [cocaine]
antagonism of nicotine-induced prostration / nicotine actions [3]: effectively block nicotine-induced prostration | antagonist activity [3]: inactive

C[N+](C)(C)CCOC(=O)c1ccccc1 [TMAE benzoate, benzoylcholine]
effectiveness relative to the DMAE ester [3]: 5 times | % Antagonism of seizures [6]: 78% | Seizures (rats with seizures/total) [6]: 1/8 | % Antagonism of mortality [7]: 63% | Mortality (dead/total) [7]: 3/10 | protection against nicotine mortality [7]: 63%

CN1[C@@H]2CC[C@H]1C[C@@H](OC(=O)C(CO)c1ccccc1)C2 (stereo partly shown) [atropine]
% Antagonism of seizures [6]: 0% | Seizures (rats with seizures/total) [6]: 6/6 | protection against nicotine mortality [7]: ineffective

CCN(CC)CCOC(=O)c1ccc(N)cc1 [procaine]
antagonism of nicotine-induced prostration / nicotine actions [3]: effectively block nicotine-induced prostration | antagonist activity [3]: antagonists

C[N+](C)(C)CCCCCC[N+](C)(C)C [hexamethonium]
Kd [4]: > 100 µM | IC50 [4]: > 100 µM | IC50 [5]: > 100 µM

CN(C)CCOC(=O)c1ccccc1 [DMAE benzoate, dimethylaminoethyl benzoate]
% Antagonism of seizures [6]: 45% | Seizures (rats with seizures/total) [6]: 5/9

[3H]C([3H])([3H])[N+](C)(C)CCOC(=O)NC [[^3 H]-MCC, [^3 H]-methylcarbamyl choline]
Bmax (Scatchard analysis) [11]: 4.0×10^-14 moles/mg protein | rate constant for association ([11]; brain membranes): 300000 M⁻¹ s⁻¹ | rate constant for dissociation ([11]; brain membranes): 0.001 s⁻¹

CN(C)CCOC(N)=O [DMAE carbamate]
behavioral effect (rats): only a similar effect

C[N+](C)(C)CCOC(=O)Nc1ccccc1 [TMAE phenylcarbamate]
antagonism of nicotine-induced prostration / nicotine actions [3]: next in effectiveness | % Antagonism of seizures [6]: 89% | Seizures (rats with seizures/total) [6]: 1/9 | protection against seizures [6]: almost complete protection | % Antagonism of mortality [7]: 50% | Mortality (dead/total) [7]: 4/10 | protection against nicotine mortality [7]: 50%

CN(C)CCOC(=O)C1CCCCC1 [DMAE cyclohexylcarboxylate, dimethylaminoethyl cyclohexylcarboxylate]
% Antagonism of seizures [6]: 50% | Seizures (rats with seizures/total) [6]: 4/8 | seizures [6]: about half of the rats exhibited seizures

CNC(=O)Oc1ccc2c(c1)[C@]1(C)CCN(C)[C@@H]1N2C [physostigmin]
antagonist activity [3]: inactive

α-bungarotoxin
Kd [4]: > 100 µM | IC50 [4]: > 100 µM | IC50 [5]: > 100 µM

CN(C)C(=O)Oc1cccc([N+](C)(C)C)c1 [prostigmin]
antagonist activity [3]: inactive

TMAE naphthoate [TMAE napththoate]
IC50 [1, 12]: 9 µM | IC50 ([2]; read-out: 3H-MCC Binding IC50): 5 µM

CCN1CCCC1c1cccnc1 (stereo not shown) [N'-ethyl nornicotine]
decrease in affinity versus nicotine [4]: 3 fold | decrease in affinity versus nicotine [5]: 3 fold | IC50 [5]: 0.1 µM | IC50 ([2]; read-out: 3H-MCC Binding IC50): 0.1 µM
